Results as given in patent publication US12419305B2, “Antimicrobial compositions” (Firmenich SA, priority 2018, dated 2025).
Read-outs that look alike come from different tables or passages of the source.

Key:
[1] = system: Salmonella enterica ATCC 10708; assay: BCT test (bacterial contact time), 60 s, log reduction / effect fraction; CI by Compusyn; type: cell-based; conditions: Salmonella enterica, ATCC10708, 1 min, BCT 60 s, in 25% EtOH; for log reduction at 0.1 % strength: read-out: Log reduction
Outline: (§1)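 Read-out: log CFU from turbidity (OD600) of serially diluted wells after 37° C, 180 rpm growth; log reduction relative to ethanol-only control. Cells at ~1×10^8/mL met ethanolic test compositions 1:1 for the listed contact time. CI from concentrations and effect fractions; <0.9 synergy, 0.9–1.0 additive, >1.0 antagonism.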

[2] = system: Pseudomonas aeruginosa ATCC 15442; assay: as above; type: cell-based; conditions: Pseudomonas aeruginosa, ATCC15442, 1 min, BCT 60 s, in 25% EtOH
Outline: as §1

[3] = system: C. xerosis ATCC 373; assay: BCT test (bacterial contact time), 120 s, log reduction / effect fraction; CI by Compusyn; type: cell-based; conditions: Corynebacterium xerosis, ATCC373, 2 min, contact 120 s, 25% EtOH; for log reduction at 0.5 % strength: dose 0.5% w/v
Outline: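 C. xerosis cells grown in BHI-TW80 at 37 °C to OD600 1.6 were exposed to ethanolic perfume compositions for 120 s. Viable counts (log CFU) came from serial dilution and OD600 growth after 37 °C incubation, giving log reduction versus ethanol control. CI was computed from concentrations and effect fractions, with <0.9 taken as synergy.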

[4] = system: S. aureus ATCC 6538; assay: BCT test (bacterial contact time), 60 s, log reduction / effect fraction; CI by Compusyn; type: cell-based, Staphylococcus aureus; conditions: Staphylococcus aureus, ATCC6538, 1 min, in 25% EtOH
Outline: as §1

[5] = system: S. haemolyticus 114126; assay: BCT test (bacterial contact time), 120 s, log reduction / effect fraction; CI by Compusyn; type: cell-based; conditions: Staphylococcus haemolyticus, 114126, 2 min, contact 120 s, 25% EtOH
Outline: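 S. haemolyticus 114126 (skin isolate), grown to OD600 1-2 in BHI-TW80 and resuspended at 1-5×10^8 CFU/mL, was mixed 1:1 with ethanolic perfume compositions or ethanol alone for 45, 60 or 120 s. Viable counts came from serial-dilution regrowth (37 °C, turbidity OD600), giving log reduction versus ethanol control; CI was computed from concentration–effect fraction pairs.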

[6] = dose 0.25% w/v, read-out: Log reduction
[7] = dose 0.3% w/v, read-out: Log reduction

`Cc1ccc2c(c1)OCC(=O)CO2` [Calone, 7-methyl-2H-1,5-benzodioxepin-3(4H)-one] showed a log reduction at 0.25 % strength ([1]; Dose 0.25 % w/v) of 0.7, a log reduction at 0.3 % strength ([1]; Dose 0.3 % w/v) of 2.7 and a log reduction at 0.35 % strength ([1]; Dose 0.350 % w/v) of 4.2. The log reduction at 0.4 % strength ([1]; Dose 0.4 % w/v) was 7.2, the log reduction at 0.45 % strength ([1]; Dose 0.450 % w/v) was 7.8 and the log reduction at 0.25 % strength ([2]; Dose 0.25 % w/v, read-out: Log reduction) was 0.3. For the same compound, the log reduction at 0.3 % strength ([2]; Dose 0.3 % w/v, read-out: Log reduction) was 1, the log reduction at 0.35 % strength ([2]; Dose 0.35 % w/v) was 2.7 and the log reduction at 0.4 % strength ([2]; Dose 0.4 % w/v, read-out: Log reduction) was 4.3. The log reduction at 0.5 % strength ([2]; Dose 0.5 % w/v) was 6.9, the log reduction at 0.5 % strength [3] was 0.2 and the log reduction at 0.75 % strength ([3]; dose 0.75% w/v) was 0.6. For the same compound, the log reduction at 1 % strength ([3]; dose 1.0% w/v) was 3.2, the log reduction at 1.25 % strength ([3]; dose 1.25% w/v) was 6 and the log reduction at 1.5 % strength ([3]; dose 1.5% w/v) was 6.8. It also gave a log reduction at 0.6 % strength ([4]; dose 0.600 % w/v, 60 s, read-out: Log reduction) of 1.6, a log reduction at 0.7 % strength ([4]; dose 0.700 % w/v, 60 s, read-out: Log reduction) of 2.5 and a log reduction at 0.8 % strength ([4]; dose 0.800 % w/v, 60 s) of 6.9. The log reduction at 0.9 % strength ([4]; dose 0.900 % w/v, 60 s) was 6.9, the log reduction at 1 % strength ([4]; dose 1.000 % w/v, 60 s, read-out: Log reduction) was 6.9 and the log reduction at 0.5 % strength ([5]; dose 0.5% w/v) was 0. The log reduction at 0.7 % strength ([5]; dose 0.7% w/v) was 0.5, the log reduction at 0.8 % strength ([5]; dose 0.8% w/v) was 2.9 and the log reduction at 0.9 % strength ([5]; dose 0.9% w/v) was 4.7. For the same compound, the log reduction at 1.2 % strength ([5]; dose 1.2% w/v) was 6.9.

`C=CCc1ccc(O)c(OC)c1` [Eugenol F, 2-Methoxy-4-(prop-2-en-1-yl)phenol] showed a log reduction at 0.075 % strength ([1]; Dose 0.075 % w/v) of 1, a log reduction at 0.1 % strength ([1]; Dose 0.1 % w/v) of 2.4 and a log reduction at 0.1 % strength ([1]; Dose 0.10 % w/v) of 2. The log reduction at 0.125 % strength ([1]; Dose 0.125 % w/v) was 4.4, the log reduction at 0.15 % strength ([1]; Dose 0.15 % w/v) was 7.8 and the log reduction at 0.12 % strength ([2]; Dose 0.12 % w/v) was 2.4. It also gave a log reduction at 0.14 % strength ([2]; Dose 0.14 % w/v) of 3.8, a log reduction at 0.15 % strength ([2]; Dose 0.15 % w/v) of 7.5 and a log reduction at 0.1 % strength ([3]; dose 0.1% w/v) of 0.1. For the same compound, the log reduction at 0.2 % strength ([3]; dose 0.2% w/v, read-out: Log reduction) was 0.4, the log reduction at 0.25 % strength [3, 6] was 1.8 and the log reduction at 0.3 % strength [3, 7] was 2.7. For the same compound, the log reduction at 0.4 % strength ([3]; dose 0.4% w/v, read-out: Log reduction) was 5.1, the log reduction at 0.5 % strength [3] was 6.3 and the log reduction at 0.1 % strength ([4]; Dose 0.1 % w/v, BCT 60 s) was 0.8. For the same compound, the log reduction at 0.125 % strength ([4]; Dose 0.125 % w/v, BCT 60 s) was 1.6, the log reduction at 0.15 % strength ([4]; Dose 0.15 % w/v, BCT 60 s, read-out: Log reduction) was 2.3 and the log reduction at 0.175 % strength ([4]; Dose 0.175 % w/v, BCT 60 s, read-out: Log reduction) was 5.5. For the same compound, the log reduction at 0.1 % strength ([4]; dose 0.100 % w/v, 60 s) was 0.7, the log reduction at 0.125 % strength ([4]; dose 0.125 % w/v, 60 s) was 1.5 and the log reduction at 0.13 % strength ([4]; dose 0.13 % w/v, 60 s) was 1.6. It also gave a log reduction at 0.15 % strength ([4]; dose 0.150 % w/v, 60 s, read-out: Log reduction) of 2.2, a log reduction at 0.175 % strength ([4]; dose 0.175 % w/v, 60 s, read-out: Log reduction) of 4.6 and a log reduction at 0.2 % strength ([4]; dose 0.200 % w/v, 60 s, read-out: Log reduction) of 6.9. For the same compound, the log reduction at 0.2 % strength ([5]; dose 0.2% w/v) was 0.3, the log reduction at 0.25 % strength [5, 6] was 2.37 and the log reduction at 0.3 % strength [5, 7] was 4.9. For the same compound, the log reduction at 0.35 % strength ([5]; dose 0.35% w/v) was 7.6.
